{"source": "paper PMC4233638", "about": "“Proanthocyanidin synthesis in Theobroma cacao: genes encoding anthocyanidin synthase, anthocyanidin reductase, and leucoanthocyanidin reductase” (BMC Plant Biology, 2013)", "molecular_target": "T1, TcLAR (Theobroma cacao, UniProt D3XFG4)", "T1 construct": "gene LAR; full-length ORF (361 residues, 1,083 bp) in pET-21a, C-terminal 6xHis tag kept, E. coli Rosetta (DE3), purified by Magne-His", "T1 sequence (D3XFG4 entry or part of it)": "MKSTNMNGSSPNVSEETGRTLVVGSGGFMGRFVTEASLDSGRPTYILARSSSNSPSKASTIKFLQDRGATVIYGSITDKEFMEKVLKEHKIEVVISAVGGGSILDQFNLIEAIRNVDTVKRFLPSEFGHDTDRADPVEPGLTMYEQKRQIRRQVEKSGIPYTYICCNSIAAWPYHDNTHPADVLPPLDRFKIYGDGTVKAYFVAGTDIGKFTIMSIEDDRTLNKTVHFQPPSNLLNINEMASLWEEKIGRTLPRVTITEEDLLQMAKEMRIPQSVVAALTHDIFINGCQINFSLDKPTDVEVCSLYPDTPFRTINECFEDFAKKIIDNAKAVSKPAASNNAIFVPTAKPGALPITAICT", "test": "HPLC-UV and radioactivity detection of catechin product", "assay_type": "biochemical", "conditions": "labelled compound (3H); 0.4 mM substrate, 0.5 mM NADPH, 100 mM potassium phosphate pH 7.0, 4 mM DTT, 10% glycerol, 30 C, 1 h", "data": [{"smiles": "Oc1cc(O)c2c(c1)O[C@H](c1ccc(O)c(O)c1)[C@@H](O)[C@H]2O", "note": "[leucocyanidin]", "values": [{"measurement": "HPLC-UV and radioactivity detection of catechin product", "result": "detected when TcLAR protein was incubated with ^3H -labeled leucocyanidin"}]}]}
